The values that follow come from ChEMBL document CHEMBL1201862, “PubChem BioAssay data set” (2004).

Among the test systems are A549; ACHN; CCRF-CEM; HOP-92; HT-29; Hs-578T; K562; MDA-MB-231; NCI/ADR-RES; OVCAR-3; OVCAR-8; RXF 393; SF-268; SK-MEL-28; SK-MEL-5; SR; UO-31; IGROV-1; RPMI-8226; HL-60.
What all share (assay): inhibition of tumour cell growth, NCI panel, 48 h

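Compound exposure: 48 hours, 5 concentrations, 96-well plates. GI50: concentration for 50% inhibition of growth.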 Activity calls are given as the source filed them. No stated cut-off is given here; in the data, active = GI50 up to about 1.1 µM and inactive = higher.

With `c1csc(-c2cc(-c3ccsc3)c(-c3cccs3)s2)c1`, the GI50 was 92.7 µM (inactive) in the assay on A549; 99.5 µM (inactive) in the assay with ACHN; 28.8 µM (inactive) in the assay on CCRF-CEM; 32.2 µM (inactive) in the assay with HOP-92; 43.6 µM (inactive) in the assay on HT-29; > 100 µM (inactive) with Hs-578T. Moreover, the GI50 in the assay on K562 is 69.8 µM (inactive); in the assay with MDA-MB-231 it was 29.8 µM (inactive); in the assay on NCI/ADR-RES, > 100 µM (inactive); in the assay with OVCAR-3 it was > 100 µM (inactive); in the assay with OVCAR-8, > 100 µM (inactive); in the assay on RXF 393, 49.8 µM (inactive). Moreover, the GI50 with SF-268 is > 100 µM (inactive); with SK-MEL-28, 41.3 µM (inactive); in the assay on SK-MEL-5 it was 53.6 µM (inactive); in the assay on SR, 36.9 µM (inactive); in the assay with UO-31 it was 76.2 µM (inactive).
As to `C/C=C\C1OC1(C)c1cc(=O)c2c(C)cc3c(c2o1)C(=O)c1c(O)c(C2CC(C)(N(C)C)C(OC(C)=O)C(C)O2)cc(C2CC(N(C)C)C(O)C(C)O2)c1C3=O` (stereo not drawn), the GI50 in the assay with A549 is < 0.00375 µM (active); with ACHN, < 0.00375 µM (active); in the assay with CCRF-CEM, < 0.00375 µM (active); in the assay on HOP-92, 0.00593 µM (active); in the assay with HT-29, < 0.00375 µM (active); with Hs-578T, 0.00766 µM (active). Besides, the GI50 is 0.00569 µM (active) in the assay on IGROV-1; < 0.00375 µM (active) in the assay with K562; 0.0067 µM (active) in the assay on MDA-MB-231; 0.00409 µM (active) in the assay on NCI/ADR-RES; 0.00451 µM (active) in the assay with OVCAR-3; < 0.00375 µM (active) with OVCAR-8. The GI50 with RPMI-8226 is < 0.00375 µM (active); in the assay with RXF 393, < 0.00375 µM (active); with SF-268, 0.00516 µM (active); in the assay with SK-MEL-28 it was 0.0152 µM (active); in the assay on SK-MEL-5, 0.00414 µM (active); in the assay on SR, < 0.00375 µM (active). The GI50 in the assay with UO-31 was 0.00509 µM (active).
`Cc1csc(NC23CC4CC(CC(C4)C2)C3)[n+]1C(P(=O)([O-])O)P(=O)(O)O` (stereo not drawn): the GI50 with A549, with ACHN, in the assay with CCRF-CEM, in the assay with HOP-92, in the assay on HT-29 and with Hs-578T was > 100 µM (inactive) throughout. Further, the GI50 in the assay with IGROV-1, in the assay with K562, in the assay on MDA-MB-231, with NCI/ADR-RES, in the assay with OVCAR-3 and in the assay with OVCAR-8 was > 100 µM (inactive) each time. Further, the GI50 in the assay on RPMI-8226, in the assay on RXF 393, in the assay with SF-268, with SK-MEL-28, in the assay with SK-MEL-5 and with SR was > 100 µM (inactive) in each case. The GI50 in the assay with UO-31 was > 100 µM (inactive).
On to `CC(=O)CN/C(C)=N/Nc1ccc([N+](=O)[O-])cc1[N+](=O)[O-]`, for which the GI50 with A549 is > 100 µM (inactive); in the assay with ACHN, 94.4 µM (inactive); with CCRF-CEM, > 100 µM (inactive); in the assay with HT-29, > 100 µM (inactive); in the assay with Hs-578T it was > 100 µM (inactive); in the assay with IGROV-1 it was > 100 µM (inactive). In addition, the GI50 in the assay with K562 was 5.2 µM (inactive); in the assay on MDA-MB-231 it was > 100 µM (inactive); in the assay with NCI/ADR-RES it was > 100 µM (inactive); in the assay with OVCAR-3, > 100 µM (inactive); with OVCAR-8, > 100 µM (inactive); with RPMI-8226, > 100 µM (inactive). The GI50 in the assay with RXF 393, with SF-268, in the assay on SK-MEL-28, in the assay on SK-MEL-5, in the assay with SR and with UO-31 was > 100 µM (inactive) in each case.
In the case of `Nc1ccc(Nc2c3ccccc3nc3ccccc23)cc1`, the GI50 is 3.15 µM (inactive) in the assay with A549; 1.89 µM (inactive) in the assay on ACHN; 2.09 µM (inactive) with CCRF-CEM; 1.8 µM (inactive) in the assay with HL-60; 3.49 µM (inactive) with HT-29; 7.55 µM (inactive) in the assay on Hs-578T. The GI50 in the assay on IGROV-1 was 6.65 µM (inactive); with K562, 4.86 µM (inactive); with MDA-MB-231 it was 5.81 µM (inactive); in the assay with NCI/ADR-RES it was 4.9 µM (inactive); in the assay with OVCAR-3, 3.89 µM (inactive); in the assay on OVCAR-8 it was 3.31 µM (inactive). Also, the GI50 with RPMI-8226 was 4.49 µM (inactive); with RXF 393, > 10 µM (inactive); in the assay with SF-268 it was > 10 µM (inactive); in the assay with SK-MEL-28, > 10 µM (inactive); with SK-MEL-5, 3.86 µM (inactive); with SR, > 10 µM (inactive).
For `COc1cc2[nH]c(=O)[nH]c2c2c(C)c[nH]c12`, the GI50 in the assay on A549, in the assay with ACHN, with CCRF-CEM, in the assay on HL-60, in the assay with HT-29 and with Hs-578T was > 100 µM (inactive) throughout. Moreover, the GI50 in the assay on IGROV-1, in the assay with K562, in the assay with MDA-MB-231, in the assay with NCI/ADR-RES, in the assay with OVCAR-3 and with OVCAR-8 was > 100 µM (inactive) in each case. For the same molecule, the GI50 in the assay on RPMI-8226, with RXF 393, in the assay with SF-268, with SK-MEL-28, in the assay with SK-MEL-5 and in the assay with SR was > 100 µM (inactive) in each case. Also, in the assay with UO-31, the GI50 is > 100 µM (inactive).
Consider `COC(=O)/C=C(\S/C(=C(/c1ccc(OC)cc1)n1cc(C(=O)OC)c(C(=O)OC)n1)c1ccc(OC)cc1)C(=O)OC`, for which the GI50 in the assay with A549 was 77.6 µM (inactive); in the assay with ACHN, 5.13 µM (inactive); in the assay on CCRF-CEM, 0.399 µM (active); with HL-60, 2.7 µM (inactive); in the assay on HT-29 it was 8.04 µM (inactive); with Hs-578T, 47.9 µM (inactive). Also, the GI50 with IGROV-1 is 6.4 µM (inactive); in the assay on K562, 6.5 µM (inactive); with MDA-MB-231, > 100 µM (inactive); with NCI/ADR-RES, 28.7 µM (inactive); with OVCAR-3, 3.42 µM (inactive); in the assay on OVCAR-8, 2.11 µM (inactive). Further, the GI50 was 38.3 µM (inactive) in the assay with RPMI-8226; 12.6 µM (inactive) in the assay on RXF 393; 17.1 µM (inactive) in the assay on SF-268; 3.08 µM (inactive) in the assay with SK-MEL-28; 35.5 µM (inactive) with SK-MEL-5; 2.77 µM (inactive) in the assay on SR. In the assay on UO-31, the GI50 was 4.14 µM (inactive).
As to `COc1ccc(Cn2nc(OCc3ccccc3)c3cc([N+](=O)[O-])ccc32)cc1`, the GI50 with A549, in the assay with ACHN, in the assay with CCRF-CEM, in the assay on HL-60, with HT-29 and in the assay with Hs-578T was > 100 µM (inactive) throughout. Also, the GI50 with IGROV-1, in the assay with K562, in the assay on MDA-MB-231, in the assay on NCI/ADR-RES, in the assay with OVCAR-3 and in the assay on OVCAR-8 was > 100 µM (inactive) throughout. Besides, the GI50 in the assay with RPMI-8226, in the assay with RXF 393, in the assay on SF-268, with SK-MEL-28, in the assay on SK-MEL-5 and with SR was > 100 µM (inactive) in each case.
Consider `COc1cc2c(cc1OC)[C@H](C)N1CCc3cc(OC)c(OC)cc3[C@@H]1C2`, for which the GI50 in the assay with A549, in the assay on ACHN, in the assay with CCRF-CEM, in the assay with HL-60, in the assay on HOP-92 and in the assay on HT-29 was > 100 µM (inactive) throughout. Further, the GI50 with Hs-578T, in the assay with IGROV-1, with K562, in the assay on MDA-MB-231, in the assay with NCI/ADR-RES and in the assay with OVCAR-3 was > 100 µM (inactive) each time. Further, the GI50 in the assay on OVCAR-8, in the assay on RPMI-8226, in the assay with SF-268, in the assay with SK-MEL-28, with SK-MEL-5 and in the assay on UO-31 was > 100 µM (inactive) each time.
For the molecule `COc1cc([N+](=O)[O-])c(S(=O)(=O)[O-])cc1-[n+]1nc(C(=O)Nc2ccccc2)nn1-c1ccc([N+](=O)[O-])c(S(=O)(=O)O)c1`, the GI50 in the assay on A549 is > 100 µM (inactive); in the assay with ACHN it was > 100 µM (inactive); in the assay on CCRF-CEM, > 100 µM (inactive); in the assay on HL-60, 84.7 µM (inactive); in the assay with HT-29, > 100 µM (inactive); in the assay on Hs-578T, > 100 µM (inactive). The GI50 with IGROV-1 was > 100 µM (inactive); in the assay on K562, > 100 µM (inactive); with MDA-MB-231, 52.2 µM (inactive); in the assay on NCI/ADR-RES, > 100 µM (inactive); in the assay on OVCAR-3 it was > 100 µM (inactive); with RPMI-8226, > 100 µM (inactive). For the same molecule, the GI50 in the assay with RXF 393, in the assay with SF-268, in the assay with SK-MEL-28, in the assay with SK-MEL-5, in the assay on SR and with UO-31 was > 100 µM (inactive) throughout.
